Here are results for 1 molecule from patent US10829730B2, “Microdevice platform recapitulating hypoxic tissue microenvironments” (UNIVERSITY OF SOUTHERN CALIFORNIA, priority 2017, dated 2020).

“Also recorded” adds a separate entry of the source.

Series [1] deals with hypoxic human cancer cells. To be noted: hypoxic vs normoxic human cancer cells; cited from earlier work.
For series [2], the system named is MCF-7 human breast cancer cells. Put plainly: Hypoxia-activated drug assay: live-dead staining (calcein-AM / propidium iodide) of micropatterned cells, normoxic or in hypoxia microdevice. To be noted: 50 μM TPZ; for live-cell fraction (areal fraction of positive calcein staining), inside versus outside the 1.5 mm radius: N=3, one-way ANOVA; for cytotoxicity indicated by positive nuclear propidium iodide (PI) staining: 24 hours after 12 hours pre-conditioning. In kind it is cell-based. As to the method:
To assess the response of cancer cells to drug treatment under a hypoxic gradient, as well as the feasibility of the microdevice for drug screening assays, cell viability assays with TPZ treatment in the microdevice were performed. […] Cells were pre-conditioned with hypoxia in the microdevice for 12 hours, which was considered sufficient to induce cellular adaptations to hypoxia^47, before being treated with TPZ for 24 hours. […] As dead cells can be washed off in the staining process, the areal fraction of living cells with positive calcein staining was chosen as the readout for TPZ cytotoxicity. The live-cell fractions in the micropatterns inside and outside the 1.5 mm radius were quantified, which corresponds to the pillar radius.
MCF-7 human breast cancer cells were purchased from ATCC and maintained in […] (DMEM; Thermo Fisher) supplemented with 10% fetal bovine serum (FBS; Omega Scientific), 100 U mL^−1 penicillin, and 100 μg mL^−1 streptomycin (Thermo Fisher), in a humidified incubator maintained at 37° C. and 5% CO2. Round glass coverslips (12 mm in diameter; Fisher Scientific) were immersed in hot commercial detergent, rinsed with deionized water, and dried with air. The coverslips were then treated with plasma (Harrick Plasma, Model PDC-001-HP) and silanized with 1% aminopropyltriathoxysilane (Fisher Scientific) for 15 minutes. Upon extensive rinsing, coverslips were dried with air and cured at 100° C. for 1 hour. Next, silanized coverslips were coated with 0.1 mg mL^−1 rat tail collagen type I (Corning) in 4° C. for 3 hours under shaking conditions. Micropattern designs were modeled in CorelDrawX7 (Corel Corporation) and fabricated into 250 μm thick PDMS stencils (Rogers Corporation) by a laser engraver (Epilog). Stencil design was a circular feature of 5 mm diameter cut into a 13 mm circle. Stencils were then thoroughly rinsed in 70% isopropanol and deionized water, air-dried, and aligned onto the collagen-coated coverslips. The whole substrate was blocked with 0.2% w/v pluronic F-127 (Sigma) diluted in 1×PBS, rinsed with PBS, then with DMEM. Next, 300,000 MCF-7 human breast cancer cells (ATCC) were seeded. After cells adhered, PDMS stencils were peeled off and the glass coverslips with micropatterned cancer cells were briefly rinsed^41.
Micropatterned cells were pre-conditioned in normoxic conditions (no microdevice) or hypoxic conditions (microdevice) for 12 hours. Next, media was replaced with 50 μM TPZ (Sigma Aldrich), a hypoxia-activated anticancer prodrug, for 24 hours. Cells were rinsed with fresh media and stained for calcein-AM (Sigma Aldrich) and propidium iodide (PI) (Thermo Fisher Scientific) for 30 minutes at room temperature. Cell survival was quantified by the fraction of cells expressing positive calcein signal.
For the drug assay, the fraction of calcein positive cells (live cells) within (corresponding to hypoxia-induced cells under the pillar) and outside (corresponding to near-normoxic cells outside the pillar) the 1.5 mm radius was quantified. The fraction of PI positive cells (dead cells) was also quantified. The respective fractions were plotted against micropattern radii, similarly to previous image analyses. All data are plotted using Prism (GraphPad Software, Inc.).

Turning to `Nc1n[n+]([O-])c2ccccc2[n+]1[O-]` [TPZ, tirapazamine], the “selectivity at targeting hypoxic human cancer cells versus their normoxic counterparts” value in series [1] is listed as 15- to 50 fold. Besides, the “live-cell fraction (areal fraction of positive calcein staining), inside versus outside the 1.5 mm radius” value in series [2] (hypoxia microdevice, 24 hours) was “significant reduction”; in series [2] (normoxic condition (no microdevice), 24 hours), “not statistically different”. The “cytotoxicity indicated by positive nuclear propidium iodide (PI) staining” value in series [2] (hypoxic samples (microdevice), MCF-7) is listed as “cytotoxicity caused by TPZ”; in series [2] (normoxic samples (no microdevice), MCF-7), “cytotoxicity caused by TPZ; also recorded: TPZ-induced cytotoxicity”. Also, the “fate of cells under severe hypoxia near the pillar center (live-dead staining)” value in series [2] (microdevice, ≤0.03 mol/m^3 oxygen level by COMSOL simulation, 24 hours, MCF-7) was “eliminated; also recorded: death zone”.
